Measurements from patent US9758529B2, “Fused dihydro-4H-pyrazolo[5,1-C][1,4]oxazinyl compounds and analogs for treating CNS disorders” (Sunovion Pharmaceuticals Inc., priority 2015, dated 2017).

Tested on: mice
Test: Neuropharmacological Assay (SmartCube)
Type: in vivo
Details: i.p. 15 min before behavioral test; 3 doses, most efficacious dose(s) presented

Row | SMILES | AD: ADHD (probability of class match) | AG: analgesic (probability of class match) | AX: anxiolytic (probability of class match) | CE: cognitive enhancer (probability of class match) | DP: anti-depressant (probability of class match) | HA: hallucinogen (probability of class match) | MS: mood stabilizer (probability of class match) | PS: anti-psychotic (probability of class match) | SD: sedative hypnotic (probability of class match) | UN: uncharacterized CNS activity (probability of class match) | XG: anxiogenic (probability of class match)
1 | CCNCC1OCCCn2nc3ccccc3c21.Cl (stereo not drawn) [Compound 57, N-((4,5-dihydro-1H,3H-[1,4]oxazepino[4,3-b]indazol-1-yl)methyl)ethanaminium chloride] | + (LOQ≦ + <5%) | + (LOQ≦ + <5%) | + (LOQ≦ + <5%) | + (LOQ≦ + <5%) | + (LOQ≦ + <5%) | + (LOQ≦ + <5%) | + (LOQ≦ + <5%) | + (LOQ≦ + <5%) | + (LOQ≦ + <5%) | + (LOQ≦ + <5%) | + (LOQ≦ + <5%)
2 | CNCC1OCCn2nc3ccsc3c21.Cl (stereo not drawn) [Compound 58, 1-(6,7-dihydro-9H-thieno[3′,2′:3,4]pyrazolo[5,1-c][1,4]oxazin-9-yl)-N-methylmethanaminium chloride] | ++ (5%≦ ++ <25%) | + (LOQ≦ + <5%) | ++ (5%≦ ++ <25%) | + (LOQ≦ + <5%) | ++++ (50%≦ ++++) | ++ (5%≦ ++ <25%) | + (LOQ≦ + <5%) | + (LOQ≦ + <5%) | ++ (5%≦ ++ <25%) | + (LOQ≦ + <5%) | + (LOQ≦ + <5%)
3 | CN(C)CC1OCCn2nc3ccsc3c21.Cl (stereo not drawn) [Compound 59, 1-(6,7-dihydro-9H-thieno[3′,2′:3,4]pyrazolo[5,1-c][1,4]oxazin-9-yl)-N,N-dimethylmethanaminium chloride] | + (LOQ≦ + <5%) | ++ (5%≦ ++ <25%) | ++ (5%≦ ++ <25%) | ++ (5%≦ ++ <25%) | ++ (5%≦ ++ <25%) | + (LOQ≦ + <5%) | + (LOQ≦ + <5%) | ++ (5%≦ ++ <25%) | + (LOQ≦ + <5%) | +++ (25%≦ +++ <50%) | + (LOQ≦ + <5%)
4 | Cl.NCC1OCCn2nc3ccsc3c21 (stereo not drawn) [Compound 60, (6,7-dihydro-9H-thieno[3′,2′:3,4]pyrazolo[5,1-c][1,4]oxazin-9-yl)methanaminium chloride] | ++ (5%≦ ++ <25%) | + (LOQ≦ + <5%) | +++ (25%≦ +++ <50%) | + (LOQ≦ + <5%) | ++ (5%≦ ++ <25%) | + (LOQ≦ + <5%) | + (LOQ≦ + <5%) | + (LOQ≦ + <5%) | ++ (5%≦ ++ <25%) | + (LOQ≦ + <5%) | + (LOQ≦ + <5%)
5 | CNCC1OCCn2nc3cnccc3c21.Cl.Cl (stereo not drawn) [Compound 61, 1-((methylammonio)methyl)-3,4-dihydro-1H-pyrido[3′,4′:3,4]pyrazolo[5,1-c][1,4]oxazin-8-ium chloride] | ++ (5%≦ ++ <25%) | + (LOQ≦ + <5%) | + (LOQ≦ + <5%) | + (LOQ≦ + <5%) | ++++ (50%≦ ++++) | ++ (5%≦ ++ <25%) | + (LOQ≦ + <5%) | + (LOQ≦ + <5%) | + (LOQ≦ + <5%) | ++ (5%≦ ++ <25%) | + (LOQ≦ + <5%)
6 | CN(C)CC1OCCn2nc3cnccc3c21.Cl.Cl (stereo not drawn) [Compound 62, 1-((dimethylammonio)methyl)-3,4-dihydro-1H-pyrido[3′,4′:3,4]pyrazolo[5,1-c][1,4]oxazin-8-ium chloride] | + (LOQ≦ + <5%) | + (LOQ≦ + <5%) | ++ (5%≦ ++ <25%) | + (LOQ≦ + <5%) | + (LOQ≦ + <5%) | + (LOQ≦ + <5%) | + (LOQ≦ + <5%) | + (LOQ≦ + <5%) | + (LOQ≦ + <5%) | + (LOQ≦ + <5%) | + (LOQ≦ + <5%)
7 | c1ccc2c3n(nc2c1)CCOC3CN1CC1 (stereo not drawn) [Compound 63, 1-(aziridin-1-ylmethyl)-3,4-dihydro-1H-[1,4]oxazino[4,3-b]indazole] | + (LOQ≦ + <5%) | +++ (25%≦ +++ <50%) | + (LOQ≦ + <5%) | + (LOQ≦ + <5%) | ++ (5%≦ ++ <25%) | + (LOQ≦ + <5%) | + (LOQ≦ + <5%) | + (LOQ≦ + <5%) | ++ (5%≦ ++ <25%) | + (LOQ≦ + <5%) | + (LOQ≦ + <5%)
8 | c1ccc2c3n(nc2c1)CCOC3[C@@H]1CCN1 (stereo partly drawn) [Compound 64, (2S)-2-(3,4-dihydro-1H-[1,4]oxazino[4,3-b]indazol-1-yl)azetidin-1-ium chloride] | ++++ (50%≦ ++++) | ++ (5%≦ ++ <25%) | ++ (5%≦ ++ <25%) | + (LOQ≦ + <5%) | ++ (5%≦ ++ <25%) | + (LOQ≦ + <5%) | + (LOQ≦ + <5%) | + (LOQ≦ + <5%) | + (LOQ≦ + <5%) | +++ (25%≦ +++ <50%) | + (LOQ≦ + <5%)
9 | CN1CC[C@H]1C1OCCn2nc3ccccc3c21 (stereo partly drawn) [Compound 65, ((2S)-2-(3,4-dihydro-1H-[1,4]oxazino[4,3-b]indazol-1-yl)-1-methylazetidin-1-ium chloride] | + (LOQ≦ + <5%) | +++ (25%≦ +++ <50%) | ++ (5%≦ ++ <25%) | ++ (5%≦ ++ <25%) | ++ (5%≦ ++ <25%) | + (LOQ≦ + <5%) | + (LOQ≦ + <5%) | + (LOQ≦ + <5%) | ++ (5%≦ ++ <25%) | + (LOQ≦ + <5%) | ++ (5%≦ ++ <25%)
10 | c1ccc2c3n(nc2c1)CCOC3C1CNC1 (stereo not drawn) [Compound 66, 3-(3,4-dihydro-1H-[1,4]oxazino[4,3-b]indazol-1-yl)azetidin-1-ium chloride] | + (LOQ≦ + <5%) | ++ (5%≦ ++ <25%) | ++ (5%≦ ++ <25%) | + (LOQ≦ + <5%) | ++ (5%≦ ++ <25%) | + (LOQ≦ + <5%) | + (LOQ≦ + <5%) | + (LOQ≦ + <5%) | + (LOQ≦ + <5%) | + (LOQ≦ + <5%) | + (LOQ≦ + <5%)
11 | CN1CC(C2OCCn3nc4ccccc4c32)C1.Cl (stereo not drawn) [Compound 67, 3-(3,4-dihydro-1H-[1,4]oxazino[4,3-b]indazol-1-yl)-1-methylazetidin-1-ium chloride] | + (LOQ≦ + <5%) | + (LOQ≦ + <5%) | ++ (5%≦ ++ <25%) | + (LOQ≦ + <5%) | ++ (5%≦ ++ <25%) | + (LOQ≦ + <5%) | + (LOQ≦ + <5%) | + (LOQ≦ + <5%) | + (LOQ≦ + <5%) | + (LOQ≦ + <5%) | + (LOQ≦ + <5%)
12 | CNC[C@@H]1OCCn2nc3ccsc3c21 [Compound 68, (S)-1-(6,7-dihydro-9H-thieno[3′,2′:3,4]pyrazolo[5,1-c][1,4]oxazin-9-yl)-N-methylmethanamine] | ++ (5%≦ ++ <25%) | ++ (5%≦ ++ <25%) | ++ (5%≦ ++ <25%) | + (LOQ≦ + <5%) | ++++ (50%≦ ++++) | ++++ (50%≦ ++++) | + (LOQ≦ + <5%) | + (LOQ≦ + <5%) | ++ (5%≦ ++ <25%) | ++ (5%≦ ++ <25%) | + (LOQ≦ + <5%)
